Results from ChEMBL document CHEMBL1155934, “Novel quinolinonyl diketo acid derivatives as HIV-1 integrase inhibitors: design, synthesis, and biological activities” (J Med Chem, 2008).
Active and inactive are the calls of the source. No cut-off for these calls is given here.

Assays:
[1] = target: T1, Human immunodeficiency virus type 1 integrase (Human immunodeficiency virus 1, UniProt Q7ZJM1); assay: Inhibition of recombinant HIV1 integrase strand transfer activity by gel-based assay in presence of magnesium
T1 sequence (Q7ZJM1 whole entry): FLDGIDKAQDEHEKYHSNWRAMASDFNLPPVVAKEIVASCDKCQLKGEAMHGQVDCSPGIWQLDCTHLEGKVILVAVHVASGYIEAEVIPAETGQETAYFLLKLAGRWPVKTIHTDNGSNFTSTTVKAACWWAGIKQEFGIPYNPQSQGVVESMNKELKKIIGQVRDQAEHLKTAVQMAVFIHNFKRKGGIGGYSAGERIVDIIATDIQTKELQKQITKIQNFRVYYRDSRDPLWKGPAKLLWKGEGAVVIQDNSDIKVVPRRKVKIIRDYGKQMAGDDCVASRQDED

[2] = target: T1, Human immunodeficiency virus type 1 integrase; assay: Inhibition of recombinant HIV1 integrase 3'-end processing activity by gel-based assay in presence of magnesium
[3] = target: T1, Human immunodeficiency virus type 1 integrase
Description: Inhibition of recombinant HIV1 integrase strand transfer activity by high throughput electrochemiluminescent assay in presence of magnesium

[4] = target: Human immunodeficiency virus type 1 integrase (Human immunodeficiency virus 1) (UniProt Q7ZJM1); assay: Inhibition of HIV1 recombinant integrase in presence of manganese
Chain of Human immunodeficiency virus type 1 integrase (Human immunodeficiency virus 1) (Q7ZJM1 as listed by the source): as the sequence (Q7ZJM1 whole entry) above

U-937 = assay: Cytotoxicity against human U937 cells after 24 hrs by MTT assay; conditions: u-937, 24 h
[5] = tested on: Human immunodeficiency virus 1; assay: Antiviral activity against HIV1-infected in human H9/HTLV 3B cells after 4 days; format: functional, organism-based; conditions: Human immunodeficiency virus 1, 96 h

| EC50 [5] | SMILES | IC50 [1] | IC50 [2] | IC50 [3] | Activity [4] | CC50 (U-937) |
| --- | --- | --- | --- | --- | --- | --- |
| – | O=C(O)/C(O)=C/C(=O)c1c[nH]c2cc(Cl)ccc2c1=O | 17 µM | > 333 µM | 37 µM | – | – |
| – | CCOC(=O)/C(O)=C/C(=O)c1cn(Cc2ccc(F)cc2)c2c(Cl)cccc2c1=O | 5.2 µM | > 333 µM | 32 µM | Active | > 200 µM |
| – | O=C(O)/C(O)=C/C(=O)c1cn(Cc2ccc(F)cc2)c2c(Cl)cccc2c1=O | 0.51 µM | 44 µM | – | Active | > 200 µM |
| – | CCOC(=O)/C(O)=C/C(=O)c1cn(Cc2ccc(F)cc2)c2ccccc2c1=O | 0.44 µM | 135 µM | 0.67 µM | Active | 99 µM |
| – | O=C(O)/C(O)=C/C(=O)c1cn(Cc2ccc(F)cc2)c2cc(Cl)c(Cl)cc2c1=O | 0.075 µM | 11 µM | 0.033 µM | Active | 156 µM |
| – | O=C(O)/C(O)=C/C(=O)c1cn(Cc2ccc(F)cc2)c2cc(F)ccc2c1=O | 0.05 µM | 4.4 µM | 0.02 µM | Active | > 200 µM |
| – | O=C(O)/C(O)=C/C(=O)c1cn(Cc2ccc(F)cc2)c2ccc(Cl)cc2c1=O | 0.4 µM | 6.4 µM | 0.028 µM | Active | > 200 µM |
| – | CCOC(=O)/C(O)=C/C(=O)c1cn(Cc2ccc(F)cc2)c2ccc(F)cc2c1=O | 0.23 µM | > 333 µM | 0.58 µM | Active | > 200 µM |
| – | O=C(O)/C(O)=C/C(=O)c1cn(Cc2ccc(F)cc2)c2ccccc2c1=O | 0.06 µM | 14 µM | 0.04 µM | Active | > 200 µM |
| – | O=C(O)/C(O)=C/C(=O)c1ccc2c(c1)c(=O)c(C(=O)/C=C(\O)C(=O)O)cn2Cc1ccc(F)cc1 | – | – | – | – | > 200 µM |
| – | O=C(O)/C(O)=C/C(=O)c1cn(Cc2ccc(F)cc2)c2cc(N3CCCC3)ccc2c1=O | 0.18 µM | 14 µM | 0.028 µM | Active | > 200 µM |
| – | CCOC(=O)/C(O)=C/C(=O)c1cn(Cc2ccc(F)cc2)c2cc(Cl)ccc2c1=O | 3.6 µM | > 333 µM | 14 µM | Active | – |
| – | CCOC(=O)/C(O)=C/C(=O)c1cn(Cc2ccc(F)cc2)c2cc(F)ccc2c1=O | 1.2 µM | > 333 µM | 1.3 µM | Active | > 200 µM |
| – | O=C(O)/C(O)=C/C(=O)c1cn(Cc2ccc(F)cc2)c2cc(Cl)ccc2c1=O | 0.11 µM | 4 µM | 0.019 µM | Active | > 200 µM |
| – | CCOC(=O)/C(O)=C/C(=O)c1c[nH]c2ccc(Cl)cc2c1=O | 2.1 µM | 120 µM | 3.3 µM | – | – |
| – | CCOC(=O)/C(O)=C/C(=O)c1cn(Cc2ccc(F)cc2)c2c(F)cccc2c1=O | 5.2 µM | > 333 µM | 26 µM | Active | > 200 µM |
| – | O=C(O)/C(O)=C/C(=O)c1cn(Cc2ccc(F)cc2)c2ccc(F)cc2c1=O | – | 2.3 µM | – | Active | > 200 µM |
| 1 µM | O=C(O)C(=O)CC(=O)c1cccn1Cc1ccc(F)cc1 | – | – | – | – | – |
| – | CCOC(=O)/C(O)=C/C(=O)c1cn(Cc2ccc(F)cc2)c2cc(Cl)c(Cl)cc2c1=O | 1.8 µM | 135 µM | 3.9 µM | Active | 72 µM |
| – | O=C(O)/C(O)=C/C(=O)c1c[nH]c2ccc(Cl)cc2c1=O | 56 µM | 166 µM | > 111 µM | – | – |
| – | CCOC(=O)/C(O)=C/C(=O)c1cn(Cc2ccc(F)cc2)c2ccc(Cl)cc2c1=O | 3 µM | > 333 µM | 21 µM | Active | – |
| – | O=C(O)/C(O)=C/C(=O)c1cn(Cc2ccc(F)cc2)c2c(F)cccc2c1=O | 0.16 µM | 16 µM | 0.018 µM | Active | > 200 µM |
| – | CCOC(=O)/C(O)=C/C(=O)c1cn(Cc2ccc(F)cc2)c2cc(N3CCCC3)ccc2c1=O | 2.7 µM | 110 µM | 2.3 µM | Active | > 200 µM |
| – | CCOC(=O)/C(O)=C/C(=O)c1c[nH]c2cc(Cl)ccc2c1=O | 224 µM | > 333 µM | > 111 µM | – | – |
